System: Chenopodium album
Assay: LTP post-emergence greenhouse test
Format: in vivo
Conditions: Dosage 2000 g/ha

SMILES: C[C@@H](O)[C@@H](N)CCCCC(=O)O [Compound 104, (6S,7R)-6-amino-7-hydroxyoctanoic acid]
- Herbicidal activity (In-planta), LTP-Post emergence, Chenopodium album: 90
